We go through 68 compounds from the Kinase Knowledgebase extract (Sharma et al. 2016).

≈ marks a conversion by molar mass, not a printed value. Bounds are passed on as bounds.

The target in this experiment is EGFR (UniProt P00533).
Sequence of EGFR (P00533 whole entry, looked up): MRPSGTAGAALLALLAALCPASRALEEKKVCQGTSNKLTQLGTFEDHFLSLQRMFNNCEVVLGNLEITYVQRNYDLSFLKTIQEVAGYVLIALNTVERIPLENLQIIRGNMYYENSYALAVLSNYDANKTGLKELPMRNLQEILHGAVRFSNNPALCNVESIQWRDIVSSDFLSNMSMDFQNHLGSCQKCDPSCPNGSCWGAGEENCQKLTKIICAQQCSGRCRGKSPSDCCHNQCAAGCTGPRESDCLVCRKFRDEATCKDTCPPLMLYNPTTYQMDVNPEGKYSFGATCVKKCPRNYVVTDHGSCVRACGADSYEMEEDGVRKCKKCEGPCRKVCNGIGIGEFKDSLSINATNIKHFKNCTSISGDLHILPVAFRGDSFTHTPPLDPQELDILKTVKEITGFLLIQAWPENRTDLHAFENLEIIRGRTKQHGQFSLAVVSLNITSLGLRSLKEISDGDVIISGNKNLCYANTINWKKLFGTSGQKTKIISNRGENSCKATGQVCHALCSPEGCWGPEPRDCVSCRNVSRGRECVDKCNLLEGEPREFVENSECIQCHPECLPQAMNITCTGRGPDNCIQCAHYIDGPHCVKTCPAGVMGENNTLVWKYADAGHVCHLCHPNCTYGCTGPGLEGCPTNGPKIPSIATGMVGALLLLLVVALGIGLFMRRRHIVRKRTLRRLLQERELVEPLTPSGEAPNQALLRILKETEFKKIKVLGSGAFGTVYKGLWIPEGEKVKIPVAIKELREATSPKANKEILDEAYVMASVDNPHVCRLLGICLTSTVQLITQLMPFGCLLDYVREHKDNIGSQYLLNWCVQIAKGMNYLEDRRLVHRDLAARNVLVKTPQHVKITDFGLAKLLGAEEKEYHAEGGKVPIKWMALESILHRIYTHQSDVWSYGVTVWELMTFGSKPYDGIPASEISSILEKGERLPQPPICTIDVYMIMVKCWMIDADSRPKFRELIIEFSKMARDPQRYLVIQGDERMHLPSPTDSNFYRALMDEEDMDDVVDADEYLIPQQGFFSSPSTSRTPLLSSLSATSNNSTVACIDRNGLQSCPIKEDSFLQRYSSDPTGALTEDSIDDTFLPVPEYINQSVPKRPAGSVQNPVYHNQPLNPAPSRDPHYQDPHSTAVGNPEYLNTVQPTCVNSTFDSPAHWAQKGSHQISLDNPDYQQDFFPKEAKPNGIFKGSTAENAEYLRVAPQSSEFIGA
What is called IC50 is the concentration that gives 50% inhibition. Low readings indicate higher potency, high ones lower potency. Take `O=C(O)Cc1cccc(Nc2ncnc(Nc3ccc(Cl)cc3F)n2)c1`: the IC50 was 0.4 to 2.4 µg/mL (≈ 1.07 to 6.42 µM). In the case of `COC(=O)c1ccc(-c2cc(Nc3ncnc(NCc4cccs4)n3)[nH]n2)cc1` it was 2.4 to 3.5 µg/mL (≈ 5.89 to 8.59 µM). As for `COc1cc(Nc2ncnc(-n3c(NCc4ncc[nH]4)nc4ccccc43)n2)cc(OC)c1OC`, the figure is more than 4.5 µg/mL. In the case of `O=c1[nH]c2ccccc2n1-c1ncnc(Nc2ncccn2)n1` it was more than 4.5 µg/mL. `COc1cc(Nc2ncnc(-c3cccnc3Nc3ccccc3)n2)cc(OC)c1OC` gave an IC50 of more than 4.5 µg/mL. In the case of `COc1ccc(Nc2ncnc(N(C)c3ccc(F)cc3F)n2)cc1OC` it was less than 0.4 µg/mL; in that of `COc1cc(Nc2ncnc(-n3c(NCc4ccc(N(C)C)cc4)nc4ccccc43)n2)cc(OC)c1OC`, 2.4 to 3.5 µg/mL (≈ 4.56 to 6.65 µM).

In turn, `COc1cc(Nc2ncnc(Nc3cc(C)c(O)cc3C)n2)cc(OC)c1OC` returned an IC50 of less than 0.4 µg/mL.

`FC(F)(F)c1cccc(Nc2ncnc(-n3cccc3)n2)c1` displayed an IC50 of more than 4.5 µg/mL. As for `COc1cc(Nc2ncnc(-c3cc4ccccc4s3)n2)cc(OC)c1OC`, the figure is more than 4.5 µg/mL; as for `CN(c1cccc(Cl)c1)c1ncnc(Nc2ccc(F)c(C(F)(F)F)c2)n1`, 0.4 to 2.4 µg/mL (≈ 1.01 to 6.03 µM); as for `COc1cc(Nc2ncnc(-n3ccnc3NCc3ccccc3)n2)cc(OC)c1OC`, more than 4.5 µg/mL.

`Nc1nc2ccccc2n1-c1ncnc(Nc2cccc(CC(=O)NCc3ccccn3)c2)n1`: the IC50 was more than 4.5 µg/mL. As for `CCOC(=O)C(Cc1cccc(Nc2ncnc(Nc3cc(-c4ccco4)n[nH]3)n2)c1)(NC(C)=O)C(=O)OCC`, the figure is more than 4.5 µg/mL. `CN(c1cccc(Cl)c1)c1ncnc(NC2CCN(Cc3ccccc3)CC2)n1`: the IC50 lay within 0.4 to 2.4 µg/mL (≈ 0.978 to 5.87 µM). As for `COc1cc(Nc2ncnc(N(C/C=C/c3ccccc3)c3ccc(Cl)cc3)n2)cc(OC)c1OC`, the figure is less than 0.4 µg/mL; as for `COc1ccc(-c2ncnc(Nc3cc(OC)c(OC)c(OC)c3)n2)cc1OC`, 3.5 to 4.5 µg/mL (≈ 8.78 to 11.3 µM); as for `CN(c1cccc(Cl)c1)c1ncnc(Nc2cccc(Cn3ccnn3)c2)n1`, less than 0.4 µg/mL. Turning to `COc1cc(Nc2ncnc(-n3c(NCc4ccc(C(F)(F)F)cc4)nc4ccccc43)n2)cc(OC)c1OC`, the IC50 was more than 4.5 µg/mL. As for `COc1cc(Nc2ncnc(Nc3[nH]ncc3-c3cccs3)n2)cc(OC)c1OC`, the figure is more than 4.5 µg/mL; as for `Cc1nccc(-c2cccc(Nc3ncnc(Nc4ccc5c(cnn5Cc5ccccc5)c4)n3)c2)n1`, less than 0.4 µg/mL. As for `O=c1[nH]c2ccccc2n1-c1ncnc(Nc2cccc([N+](=O)[O-])c2)n1`, the figure is more than 4.5 µg/mL; as for `N#Cc1cccc(Nc2ncnc(-n3c(=O)[nH]c4ccccc43)n2)c1`, more than 4.5 µg/mL. In turn, `Cc1cccc(Nc2ncnc(-n3cccc3)n2)c1C` displayed a half-inhibitory concentration (IC50) of more than 4.5 µg/mL. As for `COc1cc(Nc2ncnc(-c3cccnc3Nc3ccc4c(c3)CCC4)n2)cc(OC)c1OC`, the figure is more than 4.5 µg/mL; as for `Nc1nc2ccccc2n1-c1ncnc(Nc2ccc(S(N)(=O)=O)cc2)n1`, more than 4.5 µg/mL.

In turn, `COc1cc(Nc2ncnc(Nc3cccc(F)c3)n2)cc(OC)c1OC` registered an IC50 of less than 0.4 µg/mL.

As to `COc1cccc(Nc2ncnc(Nc3cc(-c4ccccc4)n[nH]3)n2)c1`, the IC50 fell in the range of 0.4 to 2.4 µg/mL (≈ 1.11 to 6.68 µM). As for `COc1ccc(CCNc2ncnc(N3CCCc4cc(C)ccc43)n2)cc1OC`, the figure is more than 4.5 µg/mL; as for `COc1cc(Nc2ncnc(-n3c(NCc4ccccc4Cl)nc4ccccc43)n2)cc(OC)c1OC`, more than 4.5 µg/mL; as for `c1csc(-c2ncnc(Nc3ccncc3)n2)c1`, more than 4.5 µg/mL.

In the case of `COc1cc(Nc2ncnc(N[C@H]3CCCc4ccccc43)n2)cc(OC)c1OC`, the IC50 lay within 3.5 to 4.5 µg/mL (≈ 8.59 to 11 µM). As for `COc1cc(Nc2ncnc(-n3nc(-c4ccccc4)cc3N)n2)cc(OC)c1OC`, the figure is more than 4.5 µg/mL; as for `CNc1ncnc(Nc2cc(OC)c(OC)c(OC)c2)n1`, more than 4.5 µg/mL; as for `COc1cc(Nc2ncnc(N[C@H](CO)c3ccccc3)n2)cc(OC)c1OC`, 0.4 to 2.4 µg/mL (≈ 1.01 to 6.04 µM). As for `COc1cc(Nc2ncnc(-c3cccc4ccccc34)n2)cc(OC)c1OC`, the figure is more than 4.5 µg/mL.

In turn, `O=c1[nH]c2ccccc2n1-c1ncnc(Nc2cc(C(F)(F)F)cc(C(F)(F)F)c2)n1` showed an IC50 of more than 4.5 µg/mL.

`c1ccc(CNc2nc3ccccc3n2-c2ncnc(Nc3cccc(Cn4ccnn4)c3)n2)nc1` came in with an IC50 of 2.4 to 3.5 µg/mL (≈ 5.05 to 7.36 µM). As for `COc1ccc(Nc2ncnc(-n3c(N)nc4ccccc43)n2)cc1OC`, the figure is more than 4.5 µg/mL; as for `COc1ccc(Nc2ncnc(Nc3cc(Cl)cc(Cl)c3)n2)cc1OC`, 2.4 to 3.5 µg/mL (≈ 6.12 to 8.92 µM).

The compound `c1ccc(-c2ncnc(Nc3ccc(OCCCN4CCOCC4)cc3)n2)cc1` showed an IC50 of more than 4.5 µg/mL.

`O=[N+]([O-])c1cccc(Nc2ncnc(-c3cccs3)n2)c1` displayed an IC50 of more than 4.5 µg/mL. In the case of `COc1ccc(N(C)c2ncnc(-n3c(N)nc4ccccc43)n2)cc1` it was more than 4.5 µg/mL. The compound `CN(c1cccc(Cl)c1)c1ncnc(Nc2cc(Cl)c(Cl)c(Cl)c2)n1` came in with an IC50 of more than 4.5 µg/mL. As for `COc1cc(Nc2ncnc(N(Cc3ccccc3)c3nc4ccccc4[nH]3)n2)cc(OC)c1OC`, the figure is 2.4 to 3.5 µg/mL (≈ 4.96 to 7.24 µM).

For `COc1cc(Nc2ncnc(-n3ncc4ccccc43)n2)cc(OC)c1OC`, the IC50 is more than 4.5 µg/mL. As for `COc1cc(Nc2ncnc(Nc3cnc4ccccc4c3)n2)cc(OC)c1OC`, the figure is 0.4 to 2.4 µg/mL (≈ 0.989 to 5.93 µM). As for `Cc1ccc2c(c1)CCCN2c1ncnc(NCCc2c[nH]c3ccccc23)n1`, the figure is more than 4.5 µg/mL; as for `COc1cc(Nc2ncnc(Nc3cc(-c4ccc(C)cc4)n[nH]3)n2)cc(OC)c1OC`, 0.4 to 2.4 µg/mL (≈ 0.923 to 5.54 µM); as for `COc1cc(Nc2ncnc(NC3CCc4ccccc43)n2)cc(OC)c1OC` (stereo not drawn), 0.4 to 2.4 µg/mL (≈ 1.02 to 6.1 µM). As for `CN(c1cccc(Cl)c1)c1ncnc(Nc2cccc(CNC(=O)O[C@@H]3CCOC3)c2)n1`, the figure is less than 0.4 µg/mL; as for `Nc1nc2ccccc2n1-c1ncnc(Nc2ccc(N3CCOCC3)cc2)n1`, 3.5 to 4.5 µg/mL (≈ 9.01 to 11.6 µM). As to `Nc1ncnc(Nc2ccc(C3CCCCC3)cc2)n1`, the IC50 is more than 4.5 µg/mL. In the case of `CN(c1cccc(Cl)c1)c1ncnc(Nc2cccc(Cc3nnn[nH]3)c2)n1` it was less than 0.4 µg/mL.

`COc1ccc(Nc2nc3ccccc3n2-c2ncnc(Nc3cc(OC)c(OC)c(OC)c3)n2)cc1OC`: the IC50 was more than 4.5 µg/mL. As to `COC(=O)c1ccc(-c2cc(Nc3ncnc(Nc4cc(Cl)cc(Cl)c4)n3)[nH]n2)cc1`, the IC50 is more than 4.5 µg/mL.

On to `COc1cc(Nc2ncnc(Nc3ccc(Br)cc3F)n2)cc(OC)c1OC`, for which the IC50 is less than 0.4 µg/mL. In the case of `COc1cc(Nc2ncnc(Nc3cc(Cl)ccc3C)n2)cc(OC)c1OC` it was less than 0.4 µg/mL; in that of `Clc1cc(Cl)cc(Nc2ncnc(-n3cccc3)n2)c1`, more than 4.5 µg/mL; in that of `COC(=O)c1cc(OC)c(OC)cc1Nc1ncnc(-n2c(N)nc3ccccc32)n1`, more than 4.5 µg/mL. In the case of `COc1cc(Nc2ncnc(-c3cccnc3NCc3ccc(F)cc3)n2)cc(OC)c1OC` it was more than 4.5 µg/mL; in that of `COc1cccc(-c2ncnc(Nc3cc(OC)c(OC)c(OC)c3)n2)c1`, 2.4 to 3.5 µg/mL (≈ 6.51 to 9.5 µM); in that of `Nc1ncnc(Nc2ccc(F)cc2F)n1`, more than 4.5 µg/mL. In the case of `Fc1ccc(CNc2ncccc2-c2ncnc(Nc3ccc(N4CCOCC4)cc3)n2)cc1` it was more than 4.5 µg/mL; in that of `COc1ccc(Nc2ncnc(Nc3cc(OC)c(OC)c(OC)c3)n2)cc1OCCN1CCOCC1`, 3.5 to 4.5 µg/mL (≈ 6.83 to 8.78 µM). With `CC(C)(C)c1ccc(Nc2ncnc(-n3c(N)nc4ccccc43)n2)cc1`, the IC50 was more than 4.5 µg/mL.

In the case of `COc1cc(Nc2ncnc(-n3c(Nc4ccc(C(C)C)cc4)nc4ccccc43)n2)cc(OC)c1OC`, the IC50 was more than 4.5 µg/mL. On to `Fc1ccc(CNc2ncnc(Nc3cc(-c4ccco4)n[nH]3)n2)cc1`, for which the IC50 fell in the range of 3.5 to 4.5 µg/mL (≈ 9.96 to 12.8 µM).
